We go through ten compounds from patent US20150166533A1, “NOVEL 1,3-DIHYDRO-2H-BENZIMIDAZOL-2-ONE DERIVATIVES SUBSTITUTED WITH BENZIMIDAZOLES AS RESPIRATORY SYNCYTIAL VIRUS ANTIVIRAL AGENTS” (Janssen R&D Ireland, priority 2012, published 2015).

Read-outs that look alike come from different tables or passages of the source. Where only a bound is given, the exact number is not on record here.

The subject of one series is rgRSV224 virus. Description: Antiviral activity: inhibition of rgRSV224 replication (GFP expression) in HeLa cells. To be noted: read-out: WT activity EC50. The series is classed as cell-based, respiratory syncytial virus (RSV). The procedure: Black 96-well clear-bottom microtiter plates (Corning, Amsterdam, The Netherlands) were filled in duplicate using a customized robot system with serial 4-fold dilutions of compound in a final volume of 50 μl culture medium [RPMI medium without phenol red, 10% FBS, 0.04% gentamycin (50 mg/ml) and 0.5% DMSO]. Then, 100 μl of a HeLa cell suspension (5×10^4 cells/ml) in culture medium was added to each well followed by the addition of 50 μl rgRSV224 (MOI=0.02) virus in culture medium using a multidrop dispenser (Thermo Scientific, Erembodegem, Belgium). rgRSV224 virus is an engineered virus that includes an additional GFP gene (Hallak et al, 2000) and was in-licensed from the NIH (Bethesda, Md., USA). Medium, virus- and mock-infected controls were included in each test. Cells were incubated at 37° C. in a 5% CO2 atmosphere. Three days post-virus exposure, viral replication was quantified by measuring GFP expression in the cells by a MSM laser microscope (Tibotec, Beerse, Belgium).
(§1) The EC50 was defined as the 50% inhibitory concentration for GFP expression. In parallel, compounds were incubated for three days in a set of white 96-well microtitier plates (Corning) and the cytotoxicity of compounds in HeLa cells was determined by measuring the ATP content of the cells using the ATPlite kit (PerkinElmer, Zaventem, Belgium) according to the manufacturer's instructions. The CC50 was defined as the 50% concentration for cytotoxicity.
Compounds were tested for RSV inhibitory activity. The results are depicted in the Table below (n.d. means not determined): […]

Series [1] in a line: Cytotoxicity in HeLa cells, ATP content (ATPlite kit). To be noted: human, three days incubation, read-out: Tox CC50. The series is classed as cell-based. The procedure:
as §1

Another series has as its system HeLa cells. Briefly: Cytotoxicity in HeLa cells, ATP content (ATPlite kit). The series is classed as cell-based. To be noted: three days incubation, read-out: Tox CC50. The procedure: as §1
The mark [2] stands for this setting: human respiratory syncytial virus, HeLa, 72 h.

The compound `CC(C)(C)n1c(=O)n(Cc2nc3cc(Cl)ccc3n2CCCS(C)(=O)=O)c2cnccc21` [Compound P2, 1-tert-butyl-3-((5-chloro-1-(3-(methyl-sulfonyl)propyl)-1H-benzo[d]imidazol-2-yl)methyl)-1H-imidazo[4,5-c]pyridin-2(3H)-one] showed a melting point of 197 °C. Also, the EC50 in the series on rgRSV224 virus (setting [2]) was 0.39 nM. In addition, in series [1], the CC50 at 3 days is over 100000 nM.
With `COc1ccc(-n2c(=O)n(Cc3nc4cc(Cl)ccc4n3CCCS(C)(=O)=O)c3cnccc32)cc1` [Compound P7, 3-((5-chloro-1-(3-(methylsulfonyl)propyl)-1H-benzo[d]imidazol-2-yl)-methyl)-1-(4-methoxyphenyl)-1H-imidazo[4,5-c]pyridin-2(3H)-one], the melting point was found to be 250 °C. For the same compound, the EC50 with rgRSV224 virus (setting [2]) was found to be 0.05 nM. In series [1], the CC50 at 3 days is over 100000 nM.
`CC1(n2c(=O)n(Cc3nc4cc(Cl)ccc4n3CCCS(C)(=O)=O)c3cnccc32)CC1` [Compound P3]: the EC50 in the series on rgRSV224 virus (setting [2]) amounted to 0.25 nM. The CC50 at 3 days in series [1] was over 100000 nM.
Regarding `O=c1n(Cc2nc3cc(Cl)ccc3n2CCCCF)c2cnccc2n1-c1nccs1` [Compound P8, 3-((5-chloro-1-(4-fluororbutyl)-1H-benzo[d]imidazol-2-yl)methyl)-1-(thiazol-2-yl)-1H-imidazo[4,5-c]pyridin-2(3H)-one], the melting point came out at 206 °C. The half-maximal effective concentration (EC50) with rgRSV224 virus (setting [2]) was 0.19 nM. The CC50 at 3 days in series [1] is over 100000 nM.
For `O=c1n(Cc2nc3cc(Cl)ccc3n2CCCCF)c2cnccc2n1-c1ccc(F)nc1` [Compound P6, 3-((5-chloro-1-(4-fluorobutyl)-1H-benzo[d]imidazol-2-yl)methyl)-1-(6-fluoropyridin-3-yl)-1H-imidazo[4,5-c]pyridin-2(3H)-one], in that order: 208 °C, 0.79 nM and over 100000 nM.
With `O=c1n(Cc2nc3cc(Cl)ccc3n2CCCCF)c2cnccc2n1-c1ccc2ncccc2c1` [Compound P9, 3-((5-chloro-1-(4-fluororbutyl)-1H-benzo[d]imidazol-2-yl)methyl)-1-(quinolin-6-yl)-1H-imidazo[4,5-c]pyridin-2(3H)-one], the melting point stood at 231 °C. Also, the EC50 in the series with rgRSV224 virus (setting [2]) was 0.25 nM. Moreover, the CC50 at 3 days in series [1] is over 100000 nM.
In the case of “3-((5-chloro-1-(4-fluorobutyl)-1H-benzo[d]imidazol-2-yl)methyl)-1-(tetrahydrofuran-3-yl)-1H-imidazo[4,5-c]pyridin-2(3H)-one [Compound P10]”, in the series on rgRSV224 virus (rgRSV224 (MOI=0.02) in HeLa cells, GFP expression three days post-virus exposure), the concentration for a half-maximal effect (EC50) was determined as 15 nM. Moreover, the CC50 in the series with HeLa cells is over 100000 nM.
In the case of `COc1ccc(-n2c(=O)n(Cc3nc4cc(Cl)ccc4n3CCCCF)c3cnccc32)cc1` [Compound P5, 3-((5-chloro-1-(4-fluorobutyl)-1H-benzo[d]imidazol-2-yl)methyl)-1-(4-methoxyphenyl)-1H-imidazo[4,5-c]pyridin-2(3H)-one], the melting point was determined as 167 °C. Besides, in the series with rgRSV224 virus (setting [2]), the EC50 is under 0.1 nM. Besides, the CC50 at 3 days in series [1] is over 100000 nM.
As to `CC(C)(C)OC(=O)N1CC(n2c(=O)n(Cc3nc4cc(Cl)ccc4n3CCCS(C)(=O)=O)c3ccccc32)C1` [Compound P1, tert-butyl-3-(3-((5-chloro-1-(3-(methyl-sulfonyl)propyl)-1H-bezon[d]imidazol-2-yl)methyl)-2-oxo-2,3-dihydro-1H-imidazo[d]imidazol-1-yl)azetidine-1-carboxylate], the EC50 in the series with rgRSV224 virus (setting [2]) is 0.68 nM. In series [1], the CC50 at 3 days is over 100000 nM.
Compound `O=c1n(Cc2nc3cc(Cl)ccc3n2CCCCF)c2cnccc2n1-c1ccc(F)cc1` [Compound P4, 3-((5-chloro-1-(4-fluorobutyl)-1H-benzo[d]imidazol-2-yl)methyl)-1-(4-fluorophenyl)-1H-imidazo[4,5-c]pyridin-2(3H)-one] registered a melting point of 180 °C. In addition, in the series on rgRSV224 virus (setting [2]), the EC50 is 0.3 nM. The cytotoxic concentration (CC50) at 3 days in series [1] is over 100000 nM.

A word on the EC50: it is the midpoint of the concentration-response curve. A word on the CC50: it is the concentration that lowers cell viability or growth by half. Usually melting point stands for the temperature of the solid-liquid transition.
